Laboratory results as given in PubChem BioAssay (NCI).
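Grown in 96-well plates, cells were treated for 48 hours with each compound at five concentrations. Insufficient inhibition: endpoint recorded as highest concentration tested. At the GI50, growth is halved. TGI denotes the concentration required for complete inhibition of growth.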

Assays:
Assay in all cases: inhibition of tumour cell growth, NCI panel, 48 h
OVCAR-8 ovarian = system: OVCAR-8 ovarian
LXFL 529 NSCLC = system: LXFL 529 NSCLC
K-562 leukemia = system: K-562 leukemia
HOP-18 NSCLC = system: HOP-18 NSCLC
SN12C renal = system: SN12C renal
MOLT-4 leukemia = system: MOLT-4 leukemia
ACHN renal = system: ACHN renal
DMS 273 small cell lung = system: DMS 273 small cell lung
SNB-78 CNS = system: SNB-78 CNS
T-47D breast = system: T-47D breast

SMILES	TGI (OVCAR-8 ovarian) [µM]	TGI (LXFL 529 NSCLC) [µM]	TGI (K-562 leukemia) [µM]	TGI (HOP-18 NSCLC) [µM]	TGI (SN12C renal) [µM]	TGI (MOLT-4 leukemia) [µM]	TGI (ACHN renal) [µM]	TGI (DMS 273 small cell lung) [µM]	TGI (SNB-78 CNS) [µM]	TGI (T-47D breast) [µM]	GI50 (OVCAR-8 ovarian) [µM]	GI50 (K-562 leukemia) [µM]	GI50 (SN12C renal) [µM]	GI50 (MOLT-4 leukemia) [µM]	GI50 (ACHN renal) [µM]	GI50 (T-47D breast) [µM]
Cc1ccc(S(=O)(=O)ON/N=C2/C3OC3[C@@H]3CCCC[C@H]23)cc1 (stereo partly drawn)	> 100	> 100	> 100	> 100	> 100	> 100	> 100	> 100								
CCCN(CCC)c1c([N+](=O)[O-])cc(S(N)(=O)=O)cc1[N+](=O)[O-]	35.1	30	35.7	36.2	31.6	45.4	31.8	33.8								
COC(=O)/C(=N/NC(C)(C)C)C(C(=O)C=C(C)C)C(=O)C(=O)Nc1ccc(Cl)cc1C (stereo not drawn)	> 100	> 100	> 100		> 100	> 100	> 100									
O=C(N=Nc1c(O)[nH]c2ccccc12)c1ccccc1O	> 100	> 100	> 100	> 100	> 100	> 100	> 100		> 100							
c1ccc2c(NCCCCCCCCNc3c4ccccc4nc4ccccc34)c3ccccc3nc2c1	2.45	1.81		5.19	2.18		1.82	1.26		3.2						
Cc1cc2occ(C)c(=O)c2c2c1OC(C)(C)S2	> 100	> 100	> 100	> 100	> 100	> 100	> 100	> 100								
O=Nc1c2cccnc2n2nnc3ccc(Cl)cc3c12	11.2		6.66		11.7	1.49	2.02			1.7	3.74	0.239	2.06	0.0476	0.371	0.412
OC1CCC(C2C3CCCCC3C3CCCCC3C2C2CCC(O)CC2)CC1 (stereo not drawn)	20.4		> 100		> 100	> 100	7.48			11						
CCCCCCCCCCCCC(SCCNC(=O)CCNC(=O)C(O)C(C)(C)COP(=O)(O)OP(=O)(O)OCC1OC(n2cnc3c(N)ncnc32)C(O)C1OP(=O)(O)O)C(=O)NCC(N)=O (stereo not drawn)	> 100	> 100		> 100	> 100		> 100	> 100								
C=CCN(N=O)C(=O)N(CCC)CCCC(NC(C)=O)C(=O)NCc1ccccc1 (stereo not drawn)	> 100	> 100	> 100	> 100	> 100	> 100	> 100	> 100								
O=C1/C(=C\c2cccs2)Oc2ccccc21	> 100		> 100		> 100	> 100	> 100			10.8						
CN(C)CCNc1cccc2sc3ccc(O)cc3c(=O)c12	9.78		5.6		13.6	2.81	3.78			12.8	2.16	2.4	2.54	0.483	1.43	2.56
Cc1ccc(N2C(=O)C(Cl)=C(Nc3cccc(O)c3)C2=O)cc1Cl	43.5		52.8		44.1	21.2	32.7			> 100	16.8	18.9	19.7	3.13	17.5	49.6
CCOC(=O)c1c2ccc(/C=C/C(=O)OC)ccc-2c(C(=O)OCC)c1N		> 100	> 100	> 100		> 100	> 100	> 100								
N#C/C(=C(\O)C(=O)O)c1ccc(-c2cccc3ccccc23)cc1	> 100		> 100		> 100	12.2	> 100			> 100						
Cc1ccc2c(c1)sc(-c1ccc(N(C)C)cc1)[n+]2C	34.8		> 50.3		42.8	> 48.7	> 100			5.59	1.41	0.242	2.71	1.93	5.89	0.299
COc1ccc2c(C3(O)CCNCC3)c[nH]c2c1	> 100	> 100	> 100	> 100	> 100	> 100	> 100	> 100								
O=C1NC(=O)C(c2ccccc2Cl)=C1Nc1cccc(O)c1	> 25		> 25		> 25	> 25	> 25			> 25	24.6	1.32	> 19.4	> 25	> 25	> 10.4
OCCCNCc1ccccn1	> 100		> 100		> 100	> 100	> 100			> 100						
NC(=O)c1ccccc1NC(=O)C(=O)C(c1cnc2ccc([N+](=O)[O-])cc2n1)[N+](=O)[O-] (stereo not drawn)	> 100		> 100		> 100	> 100	> 100			> 100						
